# Results: patent US11278567B2, “Methods of modifying neuronal function by changing intracellular magnesium levels” (Neurocentria, Inc., priority 2016, dated 2022)
# Several values for one entry are separate records, joined by “and”; a condition that tells them apart may be missing. Identical values can stand only once. Entries after “also recorded” stand apart in the source; their conditions may differ.
# Columns and labels:
# Format in all cases: cell-based, Sprague-Dawley rats
# [1] = system: hippocampal CA3-CA1 pyramidal neurons; experiment: In vitro immunofluorescence quantification of presynaptic proteins in terminals
# Description: (§1) High-density primary cultures of hippocampal CA3-CA1 pyramidal neurons of neonatal Sprague-Dawley rats (<24 hr) were used in the current study, as described before (Slutsky et al., Neuron. 2004; 44(5):835-49). The neurons were cultured on 1 #coverslips (8 mm×8 mm) for 14-28 days in vitro (div) before use. [Mg^2+]o in culture medium was adjusted to different concentrations according to experimental designs. In each experiment, sister cultures from the same batch were always used for treatment and control conditions on the same day, and the experimental results were repeated using several different batches.
# The neurons were fixed in 1×PBS (pH 7.4) containing 1% Paraformaldehyde (E.M.S.), 0.01% Glutaraldehyde (Alfa Aesar) and 4% Sucrose (Amresco) for 1 hr RT. […]
# For FIG. 3B, the average density of immunoreactive puncta of a given AOI was calculated from the total puncta number divided by the total MAP2(+) area; the values from several AOIs were averaged to represent the average puncta density in a coverslip; for each data bar, the mean±SEM of these coverslips were presented. […] For FIGS. 5C and 5D, the mean fluorescence intensity per pixel in each cell body was measured (the somatic area of each cell body was measured from DIC image) and then the mean±SEM of all the cell bodies were presented. […]
# [2] = system: hippocampal CA3-CA1 pyramidal neurons; experiment: Intracellular Mg2+ measurement with Magnesium Green-AM (MgGrn); settings: for [Mg2+]i after blockade of axonal transport: 0.5 mM
# Description: as §1
# The mature cultures were incubated in Tyrode's solution with 2 μM Magnesium Green™-AM (MgGrn, an intracellular Mg^2+ indicator, Invitrogen) for 30 min and washed out for 20 min; both at 37° C. Fluorescent images of several AOIs in each coverslip were taken on FV300 at RT. In the current study, the MgGrn fluorescence at basal condition (without eliciting any AP stimulus) (FIG. 1A) was measured to eliminate any effects caused by AP-induced intracellular Ca^2+ fluctuations. Since the intracellular Ca^2+ concentration ([Ca^2+]i) at basal condition was usually <100 nM, the contribution of Ca^2+ to MgGrn fluorescence was very small. Thus, the fluorescent intensity of MgGrn could be considered proportional to [Mg^2+]i. Since the measured MgGrn fluorescence was also dependent on the local volume of branches in network, a physical model was built to describe this phenomenon and the calculating formula that corrected the effect of varying local volumes was derived.
# In the experiments, given a randomly selected AOI of dendritic area (the image was obtained as described above), 50-100 branches were randomly selected from each AOI and the mean intensity of fluorescence (i.e. F(z)max) of each branch was measured. Meanwhile, the diameter of each branch (d) was measured from the DIC image, then the F(z)max/d was calculated to represent the [Mg^2+]i in the branch. The mean value of these 50-100 branches was calculated to represent the level of [Mg^2+]i in the AOI. […]
# [3] = system: hippocampal CA3-CA1 pyramidal neurons; experiment: Functional terminal density (N5AP): FM dye vesicle turnover under 5AP bursts; settings: for N5AP after blockade of axonal transport: 0.5 mM
# Description: as §1
# Vesicle turnover in response to bursting action potentials (see below) is a measure of the functional status of a presynaptic terminal. FM dyes were used to visualize the vesicle turnover of presynaptic terminals. In the current study, 10 μM FM1-43 or 20 μM FM4-64 (Biotium) was loaded under different patterns of field stimulations, such as 5AP bursts (5 action potentials (Aps) at 100 Hz for each burst, 6 bursts (30 APs totally) with 10 s inter burst interval were given) and “maximal stimulation” (600 APs at 10 Hz). Releasable fluorescence in the AOI (ΔF) was obtained from the difference of loading (F1) and unloading (F2) images, i.e. ΔF=F1−F2 (see FIG. 1A). For FIG. 3C, the loading/unloading procedures were performed under 5AP bursts and 600AP stimulation at the same area of network successively. Subsequently, the ΔF5AP and ΔF600AP images were registered to colocalize the vesicle turnover for these two stimulating protocols for individual terminals.
# The functional terminal density (N5AP) at a dendritic branch was defined as the number of 5AP bursting stimulation induced FM(+) puncta (#FM5AP) per unit area of dendritic branch (A), N5AP=#FM5AP/A. […] immunofluorescence (IF) staining of MAP2 (as described below), which specifically presents in dendritic skeleton, was used to label dendritic area and A was calculated from MAP2(+) area. To limit the error of A introduced by the immunoreactivity of MAP2(+), the staining and imaging parameters were rigorously controlled in different batches of IF and the grey-scale histograms of MAP2(+) images were equalized before measuring A. Here, to ensure the equalized MAP2(+) marked area could reflect the real morphology of dendrites, the parameters of histogram equalization were set based on the comparison of MAP2(+) and DIC images. For most experiments, the average N5AP of an AOI was calculated from the total number of FM(+) puncta divided by total MAP2(+) area to reduce the sampling error. Then the mean N5AP of all AOIs (1-5 AOIs/coverslip) was used to represent the average N5AP in a coverslip; for each statistical data point, several coverslips were used and the mean±standard error of the mean (SEM) of all coverslips was represented (see figure legends). For FIGS. 3B and D, the FM(+) puncta density induced by 600AP stimulation was also calculated and presented in the same way as described above. Exceptionally, for FIG. 2B, each point represented the N5AP at a single segment of dendritic branch. In general, in an AOI (59 μm×59 μm, with varying dendritic density) 351-1598 presynaptic functional terminals could be detected by FM dyes for different experimental groups under 5AP bursting stimulation.
# [4] = system: hippocampal CA3-CA1 pyramidal neurons; experiment: Mitochondrial status assessment (JC-1 membrane potential, mitochondrial density)
# Description: The neurons were cultured on 1 #coverslips (8 mm×8 mm) for 14-28 days in vitro (div) before use. [Mg^2+]o in culture medium was adjusted to different concentrations according to experimental designs.
# For FIG. 7A, mitochondria were marked with 40 nM Mitoview633 (Biotium) for 15 min and then washed out in blank medium for 15 min, both at 37° C. For FIG. 6A, the membrane potential-sensitive fluorescent dye JC-1 (1 μM) (Invitrogen) was used. JC-1 was incubated for 15 min followed by a 15 min washout at 37° C. Fluorescent images were taken on FV300 confocal. Mitochondrial membrane potential (ΔΨ) of each mitochondrion was estimated by the ratio of fluorescence of aggregate versus monomer form of JC-1, i.e. Faggr/Fmono. JC-1 was excited by 488 nm laser and the emission spectra were collected at 510-575 nm and >575 nm at the same time separately. Then the ratio of fluorescence at >575 nm versus at 510-575 nm (Faggr/Fmono) was calculated for each individual mitochondrial punctum to represent the ΔΨ of that mitochondrion. To estimate the valid range of Faggr/Fmono, Faggr/Fmono of individual mitochondria was measured before and after administering 5 μM Carbonyl cyanide 4-(trifluoromethoxy)phenylhydrazone (FCCP) 5 min at the same AOI. […] Faggr/Fmono was calculated for each individual meaningful punctum and the mean value of population was calculated from all the puncta to represent the general ΔΨ in this AOI. 3-5 AOIs were measured for each coverslip and the mean of the AOIs were calculated to represent the average ΔΨ of the coverslip. For each bar or point in FIG. 6, several coverslips were used (described in legends). The density of mitochondria (Nmito) was also quantified by counting the number of JC-1-aggregate(+) fluorescent puncta (FIG. 6) or MitoView633(+) puncta (FIG. 7) per area of branches.
# [5] = system: hippocampal CA3-CA1 pyramidal neurons; experiment: Probability of transmitter release (Pr) in individual boutons, FM dye; settings: [Mg2+]o elevated from 0.8 to 1.2 mM for four hours; single action potential input
# Description: FIGS. 25Aa to 25B. Intracellular Mg^2+ is a negative regulator of Pr. (FIG. 25Aa-25Ac) Inverse relationship between Pr and intracellular Mg^2+ concentration ([Mg^2+]i) in individual boutons. For individual terminals, the higher the [Mg^2+]i, the lower the Pr. (FIG. 25Aa) [Mg^2+]i and Pr in individual boutons were determined by Magnesium Green (MgGrn) and FM4-64, respectively. (FIG. 25Ab) Pr was negatively associated with [Mg^2+]i in individual boutons in a synaptic network. (FIG. 25Ac) Pr was linearly correlated with 1/[Mg^2+]i. […] Extracellular Mg^2+ concentration ([Mg^2+]o) was elevated from 0.8 to 1.2 mM for four hours to increase [Mg^2+]i.
# FIGS. 26A and 26B. (FIG. 26A) Representative DIC and FM1-43 images comparing presynaptic responses to single (“1AP”: 30AP0.5 Hz) and bursting (“5AP”: 6 groups of 5 APs at 100 Hz, ISI 10 sec) stimulus at low (0.8 mM) and high (1.2 mM) [Mg^2+]o. (FIG. 26B) Quantitative analysis of images from FIG. 26A. ***p<0.001. For methods see Slutsky et al, 2004, and Example 1. 2AP and 3AP refer to 6 groups of 2 APs at 100 Hz or 3 APs at 100 Hz, respectively.
# [6] = elevating Mg2+ level for long term (>48 hr)
smiles,measurement,setting,value
COc1cc2c(c(OC)c1OC)-c1ccc(OC)c(=O)cc1[C@@H](NC(C)=O)CC2 [Colchicine],concentration of presynaptic proteins in terminals,"[1]; 0.5 mM, as a function of blocking time, low and high [Mg2+]o",decrease; also recorded: decreased linearly
same,[Mg2+]i after blockade of axonal transport,[2]; at the high [Mg2+]o condition,without change
same,[Mg2+]i after blockade of axonal transport,[2]; while increasing [Mg2+]o,did not prevent elevation
same,N5AP after blockade of axonal transport,[3]; at the high [Mg2+]o condition,remarkable reduction
same,N5AP after blockade of axonal transport,[3]; while increasing [Mg2+]o,prevented the increase
"N#CC(C#N)=NNc1ccc(OC(F)(F)F)cc1 [FCCP, Carbonyl cyanide 4-(trifluoromethoxy)phenylhydrazone, reference compound]","mean Faggr/Fmono of all mitochondria (JC-1, ΔΨ)","[4]; 5 μM, 5 min, from 1.21±0.02 before",0.26±0.002
CN(C)CCCN1c2ccccc2CCc2ccccc21 [Imipramine],[Mg2+]i (MgGrn fluorescence),[2]; 1 μM for 4 hr,elevation
same,functional terminal density (N5AP),"[3]; 1 μM for 4 hr added to Ctrl ([Mg2+]o 0.8 mM), 5AP bursts",increased
same,persistence of N5AP enhancement,[3]; after 1 μM for 4 hr,~32 h
[Mg+2] [Mg^2+],increase in mitochondrial membrane potential (ΔΨ),[4]; elevating Mg2+ for 4 hr,~39%
same,increase in general mitochondrial function (Nmito×ΔΨ),[4]; elevating Mg2+ level for 4 hr,~68% and 67.8±12.4%
same,increase in mitochondrial density (Nmito) in distal branches,[4]; elevating Mg2+ level for 4 hr,~20% and 19.4±2.9%
same,increase in general mitochondrial function (Nmito×ΔΨ),[4]; [6],56.2±6.5%
same,increase in mitochondrial density (Nmito) in distal branches,[4]; [6],19.6±2.1%
same,probability of release (Pr),[5],reduced
same,increase in expression of Ca2+ sensor (SYT1) and coupling proteins in terminals,[1]; high [Mg2+]o (1.2 4 hr) vs Ctrl 0.8,30-44%
same,terminals functional in response to 5AP bursts (of 600AP-releasable terminals),[3]; [Mg2+]o elevated from 0.8 to 1.2 mM for 4 hr,90.6±2.9% and ~90%
